Article PMC12217109, “Development of novel benzamide class I selective lysine deacetylase inhibitors as potent anticancer agents” (Journal of Enzyme Inhibition and Medicinal Chemistry, 2025)
Entries after “also recorded” stand apart in the source; their conditions may differ. Like-named read-outs stand apart in the source and are kept apart here.

How the values were obtained:
[1] = system: A2780 ovarian cancer cell line; experiment: MTT cellular viability assay, A2780; type: cell-based; settings: Homo sapiens
acetylated histone H4 = experiment: Flow cytometric analysis of histone H4 acetylation in A2780 cells; type: cell-based, human; settings: A2780, 24 h, 5 µM or 10 µM
Experimental: The method was adapted from Ronzoni et al.[67] as previously described. A2780 cells were exposed to test compounds (0–10 µM) for 24 h, fixed with ice-cold ethanol (70% v/v) and permeabilised in the presence of 0.1% Triton-X. Non-specific protein binding was blocked using normal goat serum prior to incubation with or without primary antibodies raised against either anti-hyperacetylated Histone H4 (Penta) antibody (Upstate Biotechnology, USA) or acetylated tubulin (Sigma-Aldrich, UK), followed by incubation with FITC-conjugated secondary antibody (Dako). Cells were incubated in propidium iodide (PI) staining buffer (PBS with 50 µg/ml PI and 10 µg/ml RNase A) and subsequently analysed by flow cytometry (BD FACSCalibur; Becton Dickinson, UK). At least 15 000 events per sample were acquired and expression determined based on the detection of FITC fluorescence through the FL1 channel (530/30 nm bandpass optical filter), with cell doublets discriminated by forward/side scatter and background fluorescence omitted via comparison to unlabelled controls. Expression analysis was performed using CellQuest™ software (Becton Dickinson, UK).

MOLT-4 = experiment: NCI-60 cytotoxicity screen; type: cell-based; settings: Homo sapiens, NCI-60, 48 h, leukaemia
Excerpt: (§1) Compounds 3–7 were submitted to the US National Cancer Institute (NIH, Bethesda, Maryland) for screening against the NCI-60 panel of human cancer cell lines, as per standard protocol.

NCI/ADR-RES = experiment: NCI-60 cytotoxicity screen; type: cell-based; settings: Homo sapiens, NCI-60, 48 h, ovarian
Excerpt: as §1

H460 = experiment: NCI-60 cytotoxicity screen; type: cell-based; settings: Homo sapiens, NCI-60, 48 h, NSCLC
Excerpt: as §1

CAKI-1 = experiment: NCI-60 cytotoxicity screen; type: cell-based; settings: Homo sapiens, NCI-60, 48 h, renal
Excerpt: as §1

BT 549 = experiment: NCI-60 cytotoxicity screen; type: cell-based; settings: Homo sapiens, NCI-60, 48 h, breast
Excerpt: as §1

SF-268 = experiment: NCI-60 cytotoxicity screen; type: cell-based; settings: Homo sapiens, NCI-60, 48 h, CNS
Excerpt: as §1

SNB-19 = experiment: NCI-60 cytotoxicity screen; type: cell-based; settings: Homo sapiens, NCI-60, 48 h, CNS
Excerpt: as §1

H226 = experiment: NCI-60 cytotoxicity screen; type: cell-based; settings: Homo sapiens, NCI-60, 48 h, NSCLC
Excerpt: as §1

PC-3 = experiment: NCI-60 cytotoxicity screen; type: cell-based; settings: Homo sapiens, NCI-60, 48 h, prostate
Excerpt: as §1

SK-MEL-5 = experiment: NCI-60 cytotoxicity screen; type: cell-based; settings: Homo sapiens, NCI-60, 48 h, melanoma
Excerpt: as §1

UO-31 = experiment: NCI-60 cytotoxicity screen; type: cell-based; settings: Homo sapiens, NCI-60, 48 h, renal
Excerpt: as §1

HT29 = experiment: NCI-60 cytotoxicity screen; type: cell-based; settings: Homo sapiens, HT-29; NCI-60, 48 h, colon
Excerpt: as §1

MALME-3M = experiment: NCI-60 cytotoxicity screen; type: cell-based; settings: Homo sapiens, read-out: MALME-3M cytotoxicity IC50, NCI-60, 48 h, melanoma
Excerpt: as §1

M14 = experiment: NCI-60 cytotoxicity screen; type: cell-based; settings: Homo sapiens, NCI-60, 48 h, melanoma
Excerpt: as §1

RPMI-8226 = experiment: NCI-60 cytotoxicity screen; type: cell-based; settings: Homo sapiens, NCI-60, 48 h, leukaemia
Excerpt: as §1

SK-MEL-2 = experiment: NCI-60 cytotoxicity screen; type: cell-based; settings: Homo sapiens, NCI-60, 48 h, melanoma
Excerpt: as §1

H23 = experiment: NCI-60 cytotoxicity screen; type: cell-based; settings: Homo sapiens, NCI-60, 48 h, NSCLC
Excerpt: as §1

SR = experiment: NCI-60 cytotoxicity screen; type: cell-based; settings: Homo sapiens, NCI-60, 48 h, leukaemia
Excerpt: as §1

SK-OV-3 = experiment: NCI-60 cytotoxicity screen; type: cell-based; settings: Homo sapiens, NCI-60, 48 h, ovarian
Excerpt: as §1

HOP-92 = experiment: NCI-60 cytotoxicity screen; type: cell-based; settings: Homo sapiens, NCI-60, 48 h, NSCLC
Excerpt: as §1

HOP-62 = experiment: NCI-60 cytotoxicity screen; type: cell-based; settings: Homo sapiens, NCI-60, 48 h, NSCLC
Excerpt: as §1

U251 = experiment: NCI-60 cytotoxicity screen; type: cell-based; settings: Homo sapiens, U-251; NCI-60, 48 h, CNS
Excerpt: as §1

ACHN = experiment: NCI-60 cytotoxicity screen; type: cell-based; settings: Homo sapiens, NCI-60, 48 h, renal
Excerpt: as §1

OVCAR-8 = experiment: NCI-60 cytotoxicity screen; type: cell-based; settings: Homo sapiens, NCI-60, 48 h, ovarian
Excerpt: as §1

SF-539 = experiment: NCI-60 cytotoxicity screen; type: cell-based; settings: Homo sapiens, NCI-60, 48 h, CNS
Excerpt: as §1

A498 = experiment: NCI-60 cytotoxicity screen; type: cell-based; settings: Homo sapiens, NCI-60, 48 h, renal
Excerpt: as §1

[2] = system: AC16 ventricular cardiac cell line; experiment: MTT cellular viability assay, AC16; type: cell-based; settings: Homo sapiens, 96 h, single concentration 10 µM
Experimental: The human A2780 ovarian (#93112519) and MCF-7 breast (#86012803) cancer cell lines were obtained from the European Cell Culture Collection (ECACC; Salisbury, UK). The human cardiac ventricular AC16 cell line (#SCC109) was obtained from Merck/Millipore (UK). The A2780 and MCF-7 cell lines were maintained in RPMI-1640 medium and the AC16 cell line was maintained in DMEM/F12 medium. Culture medium of all three cell lines was supplemented with 10% heat-inactivated foetal bovine serum (FBS) and 2 mM L-glutamine, with the cells maintained in a humidified 5% CO2 atmosphere at 37 °C. The media was changed every 72h and the cells passaged via trypsinisation (Trypsin EDTA, 0.25%) before reaching confluency.
Cytotoxicity of each compound against the cell lines was assessed using the MTT assay. Cells were seeded in three replicates into 96-well plates at a density of 2 × 10^3/well for 24h to facilitate cell attachment. Media was replaced with that containing either test compound (0–10µM) for A2780 and MCF7 cell lines, single concentration (10 µM) test compound for AC16 cell line, or drug vehicle (dimethyl sulphoxide; DMSO) and the cells incubated for a further 96 h at 37 °C in a humidified 5% CO2 atmosphere. […] Chemosensitivity was thereafter assessed using a standard 3-[4, 5-dimethylthiazolyl]-2,5-diphenyltetrazolium bromide (MTT) assay, with the optical density determined at 540 nm as an indicator of cellular viability.

MDA-MB-231 = experiment: NCI-60 cytotoxicity screen; type: cell-based; settings: Homo sapiens, MDA-MB-231, read-out: MDA-MB-231 cytotoxicity IC50; NCI-60, 48 h, breast
K562 = experiment: NCI-60 cytotoxicity screen; type: cell-based; settings: Homo sapiens, NCI-60, 48 h, leukaemia
[3] = listed as A2780* of Table 4, ovarian, values as in Tables 1 and 2 (MTT), read-out: A2780* cytotoxicity IC50
[4] = A2780, MTT, 96 h, read-out: A2780 IC50

Structure (SMILES)	IC50 [1, 3] [nM]	IC50 (NCI/ADR-RES) [nM]	IC50 (H460) [nM]	IC50 (CAKI-1) [nM]	IC50 (BT 549) [nM]	IC50 (SF-268) [nM]	IC50 (SNB-19) [nM]	IC50 (PC-3) [nM]	IC50 (SK-MEL-5) [nM]	IC50 (UO-31) [nM]	IC50 (M14) [nM]	IC50 (RPMI-8226) [nM]	IC50 (SK-MEL-2) [nM]	IC50 (H23) [nM]	IC50 (SR) [nM]	IC50 (HOP-62) [nM]	IC50 (U251) [nM]	IC50 (ACHN) [nM]	IC50 (OVCAR-8) [nM]	IC50 (SF-539) [nM]	further results
Nc1ccccc1NC(=O)c1ccc(CNC(=O)OCc2cccnc2)cc1 [Compound 1, Entinostat, reference compound]	600	2380	830	1170	4140	1860	6340	2790	740	1170	2350	900	1100	3220	530	2060	2030	2330	1030	3190	acetylated histone H4 (flow cytometry) (acetylated histone H4): Increased acetylated histone H4; IC50 (MOLT-4): 1930 nM; IC50 (H226): 600 nM; IC50 (HT29): 1030 nM; IC50 (MALME-3M): 580 nM; IC50 (SK-OV-3): 2750 nM; IC50 (HOP-92): 40 nM; IC50 (A498): 360 nM
C=C(CN1CCN(c2ccccc2C(F)(F)F)CC1)c1ccc(C(=O)Nc2ccccc2N)cc1 [Compound 3, N-(2-aminophenyl)-4–(3-(4–(2-(trifluoromethyl)phenyl)piperazin-1-yl)prop-1-en-2-yl)benzamide]	7500	1870	5580	7960	2670	4550	24400	1910	3010	1000	4470	160	10300	5930	2360	4760	4630	7190	3840	3270	IC50 [1, 4]: 7500 ± 700 nM; IC50 [2]: > 10000 nM; IC50 (MDA-MB-231): 4680 nM; IC50 (MOLT-4): 130 nM; IC50 (H226): 7780 nM; IC50 (HT29): 4090 nM; IC50 (MALME-3M): 4180 nM; IC50 (SK-OV-3): 11000 nM; IC50 (HOP-92): 1850 nM; IC50 (A498): 3550 nM; IC50 (K562): 1540 nM
C=C(CN1CCN(c2cccc(C(F)(F)F)c2)CC1)c1ccc(C(=O)Nc2ccccc2N)cc1 [Compound 4, N-(2-aminophenyl)-4–(3-(4–(3-(trifluoromethyl)phenyl)piperazin-1-yl)prop-1-en-2-yl)benzamide]	1600	110	1560	630	330	1430	4100	620	570	2390	1050	320	3440	3720	20	700	1170	920	1400	540	IC50 [1, 4]: 1600 ± 500 nM; IC50 [2]: > 10000 nM; IC50 (MDA-MB-231): 940 nM; IC50 (MOLT-4): 130 nM; IC50 (H226): 1890 nM; IC50 (HT29): 1460 nM; IC50 (HOP-92): 1510 nM; IC50 (A498): 10 nM; IC50 (K562): 180 nM
C=C(CN1CCN(c2ccc(C(F)(F)F)cc2)CC1)c1ccc(C(=O)Nc2ccccc2N)cc1 [Compound 5, N-(2-aminophenyl)-4–(3-(4–(4-(trifluoromethyl)phenyl)piperazin-1-yl)prop-1-en-2-yl)benzamide]	1900	3370	3440	6080	6920	6780	12600	1290	4430	970	90600	400	> 100000	9480	1100	8380	6250	9640	6950	8150	IC50 [1, 4]: 1900 ± 400 nM; IC50 [2]: > 10000 nM; IC50 (MDA-MB-231): 3600 nM; IC50 (MOLT-4): 600 nM; IC50 (H226): 7520 nM; IC50 (HT29): 75700 nM; IC50 (MALME-3M): 19300 nM; IC50 (SK-OV-3): 12100 nM; IC50 (HOP-92): 3940 nM; IC50 (A498): 7670 nM; IC50 (K562): 300 nM
C=C(CN1CCN(c2ccccn2)CC1)c1ccc(C(=O)Nc2ccccc2N)cc1 [Compound 6, N-(2-aminophenyl)-4–(3-(4-(pyridin-2-yl)piperazin-1-yl)prop-1-en-2-yl)benzamide]	3500	1310	2810	1190	3940	1660	4860	3780	730	1800	8470	1600	1870	940	5330	1320	1480	1500	1500	1500	IC50 [1, 4]: 3500 ± 1300 nM; IC50 [2]: > 10000 nM; IC50 (MDA-MB-231): 2170 nM; IC50 (SK-OV-3): 1300 nM; IC50 (HOP-92): 5700 nM; IC50 (K562): 960 nM
C=C(CN1CCN(c2cccc(C(F)(F)F)n2)CC1)c1ccc(C(=O)Nc2ccccc2N)cc1 [Compound 7, N-(2-aminophenyl)-4–(3-(4–(6-(trifluoromethyl)pyridin-2-yl)piperazin-1-yl)prop-1-en-2-yl)benzamide]	800	640	640	510	920	1120	650	420	400	2750	970	530	5650	14100	280	2210	1160	8390	4250	980	IC50 [1, 4]: 800 ± 100 nM; IC50 [2]: > 10000 nM; IC50 (MDA-MB-231): 4620 nM; acetylated histone H4 (flow cytometry) (acetylated histone H4): Increased acetylated histone H4; also recorded: Increased induction in histone H4 acetylation; IC50 (MOLT-4): 860 nM; IC50 (H226): 13400 nM; IC50 (HT29): 560 nM; IC50 (MALME-3M): 1060 nM; IC50 (SK-OV-3): 2550 nM; IC50 (A498): 970 nM
